Test results reported in ChEMBL document CHEMBL3826915, “Design and comparative anticonvulsant activity assessment of CNS-active alkyl-carbamoyl imidazole derivatives” (Bioorg Med Chem, 2016).
Calls of active or inactive are those of the source. The rule behind the calls is not given here.

Columns and labels:
Mus musculus [1] = assay: Anticonvulsant activity in albino CF1 mouse assessed as protection against maximal electroshock-induced seizures at 100 mg/kg, ip after 0.5 hrs; format: functional, organism-based
Mus musculus [2] = assay: Anticonvulsant activity in albino CF1 mouse assessed as protection against maximal electroshock-induced seizures at 30 mg/kg, ip after 2 hrs; format: functional, organism-based
Mus musculus [3] = assay: Anticonvulsant activity in albino CF1 mouse assessed as protection against maximal electroshock-induced seizures at 100 mg/kg, ip after 2 hrs; format: functional, organism-based
Mus musculus [4] = assay: Anticonvulsant activity in albino CF1 mouse assessed as protection against 32 mA current-induced seizure at 30 mg/kg, ip after 0.5 hrs by 6 Hz psychomotor test; format: functional, organism-based
Mus musculus [5] = assay: Anticonvulsant activity in albino CF1 mouse assessed as protection against 32 mA current-induced seizure at 100 mg/kg, ip after 0.5 hrs by 6 Hz psychomotor test; format: functional, organism-based
Mus musculus [6] = assay: Anticonvulsant activity in albino CF1 mouse assessed as protection against 32 mA current-induced seizure at 30 mg/kg, ip after 2 hrs by 6 Hz psychomotor test; format: functional, organism-based
Mus musculus [7] = assay: Anticonvulsant activity in albino CF1 mouse assessed as protection against 44 mA current-induced seizure at 100 mg/kg, ip after 0.25 hrs by 6 Hz psychomotor test; format: functional, organism-based
Mus musculus [8] = assay: Anticonvulsant activity in albino CF1 mouse assessed as protection against 44 mA current-induced seizure at 100 mg/kg, ip after 2 hrs by 6 Hz psychomotor test; format: functional, organism-based
Mus musculus [9] = assay: Neurotoxicity in albino CF1 mouse assessed as behavioral impairment at 30 mg/kg, ip after 0.5 hrs by rotorod test; format: toxicity, organism-based; details: in vivo
Mus musculus [10] = assay: Neurotoxicity in albino CF1 mouse assessed as behavioral impairment at 100 mg/kg, ip after 0.5 hrs by rotorod test; format: toxicity, organism-based; details: in vivo
Mus musculus [11] = assay: Neurotoxicity in albino CF1 mouse assessed as behavioral impairment at 300 mg/kg, ip after 0.5 hrs by rotorod test; format: toxicity, organism-based; details: in vivo
Mus musculus [12] = assay: Neurotoxicity in albino CF1 mouse assessed as behavioral impairment at 30 mg/kg, ip after 2 hrs by rotorod test; format: toxicity, organism-based; details: in vivo
Mus musculus [13] = assay: Neurotoxicity in albino CF1 mouse assessed as behavioral impairment at 100 mg/kg, ip after 2 hrs by rotorod test; format: toxicity, organism-based; details: in vivo
Mus musculus [14] = assay: Neurotoxicity in albino CF1 mouse assessed as behavioral impairment at 100 mg/kg, ip after 0.25 hrs by rotorod test; format: toxicity, organism-based; details: in vivo
Mus musculus [15] = assay: Neurotoxicity in albino CF1 mouse assessed as behavioral impairment at 100 mg/kg, ip after 1 hr by rotorod test; format: toxicity, organism-based; details: in vivo
Rattus norvegicus [16] = assay: Anticonvulsant activity in albino Sprague-Dawley rat assessed as protection against maximal electroshock-induced seizures at 30 mg/kg, po after 0.25 hrs; format: functional, organism-based
Rattus norvegicus [17] = assay: Anticonvulsant activity in albino Sprague-Dawley rat assessed as protection against maximal electroshock-induced seizures at 30 mg/kg, po after 0.5 hrs; format: functional, organism-based
Rattus norvegicus [18] = assay: Anticonvulsant activity in albino Sprague-Dawley rat assessed as protection against maximal electroshock-induced seizures at 30 mg/kg, po after 1 hr; format: functional, organism-based
Rattus norvegicus [19] = assay: Anticonvulsant activity in albino Sprague-Dawley rat assessed as protection against maximal electroshock-induced seizures at 30 mg/kg, po after 2 hrs; format: functional, organism-based
Rattus norvegicus [20] = assay: Neurotoxicity in albino Sprague-Dawley rat assessed as behavioral impairment at 30 mg/kg, ip after 0.25 hrs by rotorod test; format: toxicity, organism-based; details: in vivo
Rattus norvegicus [21] = assay: Neurotoxicity in albino Sprague-Dawley rat assessed as behavioral impairment at 30 mg/kg, po after 0.25 hrs by rotorod test; format: toxicity, organism-based; details: in vivo
Rattus norvegicus [22] = assay: Neurotoxicity in albino Sprague-Dawley rat assessed as behavioral impairment at 30 mg/kg, ip after 0.5 hrs by rotorod test; format: toxicity, organism-based; details: in vivo
Rattus norvegicus [23] = assay: Neurotoxicity in albino Sprague-Dawley rat assessed as behavioral impairment at 30 mg/kg, po after 0.5 hrs by rotorod test; format: toxicity, organism-based; details: in vivo
Rattus norvegicus [24] = assay: Neurotoxicity in albino Sprague-Dawley rat assessed as behavioral impairment at 30 mg/kg, ip after 1 hr by rotorod test; format: toxicity, organism-based; details: in vivo
Rattus norvegicus [25] = assay: Neurotoxicity in albino Sprague-Dawley rat assessed as behavioral impairment at 30 mg/kg, po after 1 hr by rotorod test; format: toxicity, organism-based; details: in vivo
Rattus norvegicus [26] = assay: Neurotoxicity in albino Sprague-Dawley rat assessed as behavioral impairment at 30 mg/kg, ip after 2 hrs by rotorod test; format: toxicity, organism-based; details: in vivo
Rattus norvegicus [27] = assay: Neurotoxicity in albino Sprague-Dawley rat assessed as behavioral impairment at 30 mg/kg, po after 2 hrs by rotorod test; format: toxicity, organism-based; details: in vivo
Rattus norvegicus [28] = assay: Anticonvulsant activity in ip dosed albino Sprague-Dawley rat assessed as protection against maximal electroshock-induced seizures; format: functional
Rattus norvegicus [29] = assay: Anticonvulsant activity in ip dosed albino Sprague-Dawley rat assessed as protection against maximal electroshock-induced seizures by measuring time to peak effect; format: functional
[30] = Protective index, ratio of TD50 for neurotoxicity in ip dosed albino Sprague-Dawley rat to ED50 for anticonvulsant activity in ip dosed maximal electroshock-induced seizure albino Sprague-Dawley rat model; format: toxicity, organism-based; details: in vivo, read-out: Ratio TD50/ED50
Rattus norvegicus [31] = assay: Anticonvulsant activity in ip dosed albino Sprague-Dawley rat assessed as protection against subcutaneous metrazol-induced seizures; format: functional
[32] = Protective index, ratio of TD50 for neurotoxicity in ip dosed albino Sprague-Dawley rat to ED50 for anticonvulsant activity in ip dosed subcutaneous metrazol-induced seizure albino Sprague-Dawley rat model; format: toxicity, organism-based; details: in vivo, read-out: Ratio TD50/ED50
[33] = Neurotoxicity in ip dosed albino Sprague-Dawley rat assessed as motor impairment by rotorod test; format: toxicity, organism-based; details: in vivo
Rattus norvegicus [34] = assay: Anticonvulsant activity in ip dosed albino Sprague-Dawley rat assessed as protection against subcutaneous metrazol-induced seizures by measuring time to peak effect; format: functional
Mus musculus [35] = assay: Anticonvulsant activity in ip dosed albino CF1 mouse assessed as protection against maximal electroshock-induced seizures; format: functional
Mus musculus [36] = assay: Anticonvulsant activity in ip dosed albino CF1 mouse assessed as protection against subcutaneous metrazol-induced seizures; format: functional
Mus musculus [37] = assay: Anticonvulsant activity in ip dosed albino CF1 mouse assessed as protection against maximal electroshock-induced seizures by measuring time to peak effect; format: functional
Mus musculus [38] = assay: Anticonvulsant activity in ip dosed albino CF1 mouse assessed as protection against subcutaneous metrazol-induced seizures by measuring time to peak effect; format: functional
Mus musculus [39] = assay: Anticonvulsant activity in ip dosed albino CF1 mouse assessed as protection against 6 Hz current-induced seizures by psychomotor test; format: functional
Mus musculus [40] = assay: Anticonvulsant activity in ip dosed albino CF1 mouse assessed as protection against 6 Hz current-induced seizure by measuring time to peak effect; format: functional
[41] = Protective index, ratio of TD50 for neurotoxicity in ip dosed albino CF1 mouse to ED50 for anticonvulsant activity in ip dosed 6 Hz current-induced seizure albino CF1 mouse model; details: in vivo
[42] = Neurotoxicity in ip dosed albino CF1 mouse assessed as motor impairment by rotorod test; format: toxicity, organism-based; details: in vivo

CC(COC(=O)NCCCn1ccnc1)CC(C)(C)C (configuration not stated)
Activity (Mus musculus [1]): Active | Activity (Mus musculus [2]): inactive | Activity (Mus musculus [3]): Active | Activity (Mus musculus [4]): inactive | Activity (Mus musculus [5]): Active | Activity (Mus musculus [6]): inactive | Activity (Mus musculus [7]): Active | Activity (Mus musculus [8]): inactive | Activity (Mus musculus [9]): Non-toxic | Activity (Mus musculus [10]): Toxic | Activity (Mus musculus [11]): Toxic | Activity (Mus musculus [12]): Non-toxic | Activity (Mus musculus [13]): Non-toxic | Activity (Mus musculus [14]): Toxic | Activity (Mus musculus [15]): Non-toxic | Activity (Rattus norvegicus [16]): inactive | Activity (Rattus norvegicus [17]): inactive | Activity (Rattus norvegicus [18]): inactive | Activity (Rattus norvegicus [19]): inactive | Activity (Rattus norvegicus [20]): Non-toxic | Activity (Rattus norvegicus [21]): Non-toxic | Activity (Rattus norvegicus [22]): Non-toxic | Activity (Rattus norvegicus [23]): Non-toxic | Activity (Rattus norvegicus [24]): Non-toxic | Activity (Rattus norvegicus [25]): Non-toxic | Activity (Rattus norvegicus [26]): Non-toxic | Activity (Rattus norvegicus [27]): Non-toxic | ED50 (Rattus norvegicus [28]): 17 mg/kg | Time (Rattus norvegicus [29]): 0.25 h | selectivity ratio [30]: 4.1 | ED50 (Rattus norvegicus [31]): > 70 mg/kg | selectivity ratio [32]: 1 | TD50 [33]: 70 mg/kg | Time (Rattus norvegicus [34]): 0.25 h | ED50 (Mus musculus [35]): inactive | ED50 (Mus musculus [36]): inactive | Time (Mus musculus [37]): 0.5 h | Time (Mus musculus [38]): 0.5 h | ED50 (Mus musculus [39]): 44 mg/kg | Time (Mus musculus [40]): 0.5 h | selectivity ratio [41]: 1.4 | TD50 [42]: 60 mg/kg
